“And” between values parts separate entries of the source, which are not always exact repeats. Equal entries are not always repeated.
Columns and labels:
[1] = Cytotoxicity against human CNE2 cells after 72 hrs by MTT assay; format: functional, cell-based, CNE-2
KB = assay: Cytotoxicity against human KB cells after 72 hrs by MTT assay; format: functional, cell-based

Row | Structure (SMILES) | IC50 ([1]; Homo sapiens, CNE-2, 72 h) | IC50 (KB; Homo sapiens, KB, 72 h) | IC50 ([1]; cne-2) | IC50 (KB; kb)
1 | O=C(NC(=S)Nc1ccccc1)c1cccc(C(=O)NC(=S)Nc2ccccc2)c1 | > 50 µM | > 50 µM |  | 
2 | O=C(NC(=S)Nc1ccc([N+](=O)[O-])cc1)c1cccc(C(=O)NC(=S)Nc2ccc([N+](=O)[O-])cc2)c1 | > 50 µM | 35.7 µM |  | 
3 | O=C(NC(=S)Nc1ccc(O)cc1)c1cccc(C(=O)NC(=S)Nc2ccc(O)cc2)c1 | 16.6 µM | 20 µM |  | 
4 | O=C(NC(=S)Nc1ccccc1Br)c1cccc(C(=O)NC(=S)Nc2ccccc2Br)c1 | > 50 µM | 47.1 µM |  | 
5 | Cc1ccccc1NC(=S)NC(=O)c1cccc(C(=O)NC(=S)Nc2ccccc2C)c1 | > 50 µM | > 50 µM |  | 
6 | O=c1[nH]cc(F)c(=O)[nH]1 [FLUOROURACIL] |  | 15.9 µM |  | 
7 | O=C(NC(=S)Nc1ccc(Br)cc1)c1cccc(C(=O)NC(=S)Nc2ccc(Br)cc2)c1 | 32.7 µM | 23.2 µM |  | 
8 | O=C(NC(=S)Nc1ccccc1Cl)c1cccc(C(=O)NC(=S)Nc2ccccc2Cl)c1 | > 50 µM | 38.8 µM |  | 
9 | COc1ccc(NC(=S)NC(=O)c2cccc(C(=O)NC(=S)Nc3ccc(OC)cc3)c2)cc1 | 30.3 µM | > 50 µM |  | 
10 | O=C(NC(=S)Nc1ccccc1O)c1cccc(C(=O)NC(=S)Nc2ccccc2O)c1 |  |  | 9.91 µM and > 50 µM | 10.7 µM and > 50 µM
11 | O=C(NC(=S)Nc1ccccc1F)c1cccc(C(=O)NC(=S)Nc2ccccc2F)c1 | 38.6 µM | 45 µM |  | 
12 | O=C(NC(=S)Nc1ccc(F)cc1)c1cccc(C(=O)NC(=S)Nc2ccc(F)cc2)c1 | 33 µM | 43.2 µM |  | 
13 | Cc1ccc(NC(=S)NC(=O)c2cccc(C(=O)NC(=S)Nc3ccc(C)cc3)c2)cc1 | 33 µM | 15.3 µM |  | 
14 | O=C(NC(=S)Nc1ccccc1C(F)(F)F)c1cccc(C(=O)NC(=S)Nc2ccccc2C(F)(F)F)c1 | 18.5 µM | 26.1 µM |  | 
15 | O=C(NC(=S)Nc1ccc(Cl)cc1)c1cccc(C(=O)NC(=S)Nc2ccc(Cl)cc2)c1 | 15.7 µM | 13.7 µM |  | 
16 | O=C(NC(=S)Nc1cccc(Br)c1)c1cccc(C(=O)NC(=S)Nc2cccc(Br)c2)c1 | 18.6 µM | 15.2 µM |  | 
17 | O=C(NC(=S)Nc1cccc(Cl)c1)c1cccc(C(=O)NC(=S)Nc2cccc(Cl)c2)c1 | 16.3 µM | 12 µM |  | 

Source: ChEMBL document CHEMBL1667856, “Efficient synthesis and biological evaluation of 1,3-benzenedicarbonyl dithioureas” (Bioorg Med Chem Lett, 2011)
